Patent US11421006B2, “T cell epitopes from Cockroach and methods of making and using same” (LA JOLLA INSTITUTE FOR ALLERGY AND IMMUNOLOGY, priority 2012, dated 2022)
Several values for one entry are separate records, joined by “and”; a condition that tells them apart may be missing. Equal values may be shown once.

Test system: Bla g-specific T cells (PBMC)
Assay: ELISPOT assays: IL-5, IFN-γ and IL-10 production by in vitro expanded PBMC of Cockroach-allergic donors
Type: cell-based, human
Conditions: for IFNγ / IL-5: individual peptide, one line per responding donor; for Total SFCs: IL-5 plus IFN-γ, summed over responding donors; for Cumulative Response: cumulative over regions ranked by total SFCs; for Donors Responding: number of allergic donors (34 tested) with T cell response to the region; for % Total Response: share of total Bla g specific response
Description: In vitro expansion of Bla g-specific T cells: PBMC were cultured in RPMI 1640 (V Scientific, Tarzana, Calif.) supplemented with 5% human serum (Cellgro, Herndon, Va.) at a density of 2×10^6 cells/ml in 24-well plates (BD Biosciences, San Jose, Calif.) and stimulated with 25 μg/ml German Cockroach (Blatella germanica; Bla g) extract (Greer, Lenoir, N.C.), or individual peptides. […] On day 14, cells were harvested and screened for reactivity against Bla g-specific peptide pools or individual peptides. ELISPOT assays: The production of IL-5, IFN-γ, and IL-10 was analyzed in ELISPOT assays. […] Cells were then incubated at a density of 1×10^5/well either with peptide pools or individual peptides (10 μg/ml), German Cockroach extract (25 μg/ml), PHA (10 μg/ml), or medium (containing 1% DMSO corresponding to the percentage of DMSO in the pools/peptides) as a control. […] Louis, Mo.). Spots were counted by computer-assisted image analysis (Zeiss, KS-ELISPOT reader, Munich, Germany). Each assay was performed in triplicate. The level of statistical significance was determined with a Student's t-test using the mean of triplicate values of the response against relevant pools or individual peptides versus the response against the DMSO control.

[1] = 6 months after initiation of SIT

ALREKVLGLPAIKAW (listed as Blattella germanica)
IFNγ: 843 SFC and 100 SFC and 0 SFC and 183 SFC and 147 SFC and 1690 SFC
IL-5: 0 SFC (3×) and 267 SFC and 380 SFC and 1087 SFC

EAMEKELREAFRLYD (listed as Blattella germanica) [Region 21, Bla g 6 position 86]
Total SFCs: 53 SFCs
Cumulative Response: 99.8%
IFNγ: 0 SFC
IL-5: 53 SFC
Donors Responding: 1
% Total Response: 0.2%

EEFVSLASRFLVEED (listed as Blattella germanica)
IFNγ: 220 SFC
IL-5: 0 SFC

EFVTLAAKFIIEEDS (listed as Blattella germanica) [Region 19, Bla g 6 position 71]
Total SFCs: 443 SFCs
Cumulative Response: 91.8%
IFNγ: 0 SFC
IL-5: 443 SFC
Donors Responding: 1
% Total Response: 1.8%

EQISVLRKAFDAFDR (listed as Blattella germanica)
IFNγ: 0 SFC
IL-5: 340 SFC

EVVKANGGYLAAGKL (listed as Blattella germanica)
IFNγ: 80 SFC and 380 SFC
IL-5: 467 SFC and 0 SFC

FAVATITHAAELQRV (listed as Blattella germanica) [Region 5, Bla g 2 position 11]
T cell response pattern (IL-5 / IFN-γ), in words: only associated with IFN-γ production
Total SFCs: 855 SFCs
Cumulative Response: 86.9%
IFNγ: 855 SFC
IL-5: 0 SFC
Donors Responding: 1
% Total Response: 3.5%

FETIVVTVDSLPEFK (listed as Blattella germanica) [Region 1, Bla g 1 position 351]
Total SFCs: 167 SFCs
Cumulative Response: 98.5%
IFNγ: 167 SFC
IL-5: 0 SFC
Donors Responding: 1
% Total Response: 0.7%

FLLSYGEKDFEDYRF (listed as Blattella germanica)
IFNγ: 0 SFC (2×) and 77 SFC and 127 SFC
IL-5: 1537 SFC and 0 SFC and 203 SFC and 193 SFC

GEPIRFLLSYGEKDF (listed as Blattella germanica)
IFNγ: 205 SFC
IL-5: 0 SFC

GNQNFLTVFDSTSCN (listed as Blattella germanica) [Region 7, Bla g 2 position 46]
T cell response pattern (IL-5 / IFN-γ), in words: only associated with IFN-γ production
Total SFCs: 55 SFCs
Cumulative Response: 99.6%
IFNγ: 55 SFC
IL-5: 0 SFC
Donors Responding: 1
% Total Response: 0.2%

GYITTNVLREILKEL (listed as Blattella germanica) [Region 25]
POST-SIT IFNg [1]: 0 SFC/10^6
POST-SIT IL-5 [1]: 0 SFC/10^6
POST-SIT IL-10 [1]: 0 SFC/10^6
Total SFCs: 50 SFCs
PRE-SIT IL-5 (before SIT): 50 SFC/10^6
PRE-SIT IL-10 (before SIT): 0 SFC/10^6
PRE-SIT IFNg (before SIT, one line per donor/peptide): 0 SFC/10^6
Cumulative Response: 100.0%
IFNγ: 0 SFC
IL-5: 50 SFC
Donors Responding: 1
% Total Response: 0.2%

HFFIGDFFVDHYYSE (listed as Blattella germanica) [Region 9, Bla g 2 position 321]
Total SFCs: 250 SFCs
Cumulative Response: 96.8%
IFNγ: 250 SFC
IL-5: 0 SFC
Donors Responding: 1
% Total Response: 1.0%

HMAKEDLVANQPNLK (listed as Blattella germanica)
IFNγ: 610 SFC
IL-5: 273 SFC

ISSQYYIQQNGNLCY (listed as Blattella germanica) [Region 8, Bla g 2 position 296]
Total SFCs: 153 SFCs
Cumulative Response: 99.1%
IFNγ: 153 SFC
IL-5: 0 SFC
Donors Responding: 1
% Total Response: 0.6%

IVQTLNAMPEYQNLL (listed as Blattella germanica)
IFNγ: 153 SFC
IL-5: 87 SFC
